Data from ChEMBL document CHEMBL4673397, “Dihydroorotate Dehydrogenase Inhibitors for Treating Acute Myelogenous Leukemia (AML)” (ACS Med Chem Lett, 2021).

test system: MOLM-13; assay: Antiproliferative activity against human MOLM-13 cells assessed as reduction in cell viability measured after 72 hrs by Celltiter-Glo assay; type: functional, cell-based; details: MOLM-13, 72 h

Row | SMILES | IC50 [nM]
1 | C=C(C)c1cn(-c2c(F)cccc2Cl)c(=O)c2cc(F)c(-n3nc(CO)n(CC)c3=O)cc12 | 0.1
2 | C=C(C)c1cn(-c2ccccc2F)c(=O)c2cc(F)c(-n3nc(CO)n(CC)c3=O)cc12 | 0.3
3 | C=C(C)c1cn(-c2c(F)ccc(OC)c2Cl)c(=O)c2cc(F)c(-n3nc(CO)n(CC)c3=O)cc12 | 0.1
4 | C=C(C)c1cn(-c2cc(F)ccc2C)c(=O)c2cc(F)c(-n3nc(CO)n(CC)c3=O)cc12 | 0.09

Other lines, results leading:

Row | IC50 [nM] | SMILES
5 | 0.2 | CCn1c(CO)nn(-c2cc3c(C(C)C)cn(-c4ccccc4C)c(=O)c3cc2F)c1=O
6 | 0.2 | CCn1c(CO)nn(-c2cc3c(C(C)C)cn(-c4c(F)cccc4Cl)c(=O)c3cc2F)c1=O

target: Dihydroorotate dehydrogenase (quinone), mitochondrial (Homo sapiens, UniProt Q02127); assay: Inhibition of human DHODH (30 to 390 residues) expressed in Escherichia coli using dihydroorotate as substrate and CoQ10 as co-substrate by DCIP dye based spectrophotometry analysis; details: not given
Sequence (Q02127 whole entry, the tested form may be a part): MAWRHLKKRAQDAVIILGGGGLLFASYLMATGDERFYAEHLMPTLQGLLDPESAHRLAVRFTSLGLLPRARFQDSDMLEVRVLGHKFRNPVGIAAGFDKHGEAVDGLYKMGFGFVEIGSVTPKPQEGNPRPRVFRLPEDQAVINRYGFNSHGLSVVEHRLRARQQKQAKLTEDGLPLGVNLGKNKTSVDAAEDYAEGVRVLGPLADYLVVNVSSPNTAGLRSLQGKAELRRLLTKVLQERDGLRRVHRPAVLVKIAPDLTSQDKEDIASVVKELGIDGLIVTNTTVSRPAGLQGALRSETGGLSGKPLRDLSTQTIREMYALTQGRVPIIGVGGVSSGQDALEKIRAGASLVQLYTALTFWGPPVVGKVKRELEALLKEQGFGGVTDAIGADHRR

Row | IC50 [nM] | SMILES
7 | < 0.169 | C=C(C)c1cn(-c2ccccc2F)c(=O)c2cc(F)c(-n3nc(CO)n(CC)c3=O)cc12
